pIC50: −log10 of the molar value. Converted amounts (≈) assume the structure as drawn. Read-outs that look alike come from different tables or passages of the source.
Columns and labels:
MRSA = assay: MIC by broth microdilution, MRSA isolates; type: cell-based; conditions: for MIC: Staphylococcus aureus, MRSA
E coli wild type = assay: MIC by broth microdilution, wild type E coli; type: cell-based; conditions: for MIC pH430 WT: E. coli strain pH430, WT; for MIC: Escherichia coli
P aeruginosa = assay: MIC by broth microdilution, P aeruginosa isolates; type: cell-based, Pseudomonas aeruginosa; conditions: for MIC: Pseudomonas aeruginosa
[1] = system: E coli carrying specific resistance determinants; assay: MIC by broth microdilution, E coli carrying specific resistance determinants; type: cell-based; conditions: for MIC AG003 E. coli AAC(3)-II: clinical isolate AG003, AAC(3)-II; for MIC AG036 ANT(4′,4′′): E. coli strain AG036, ANT(4′,4′′); for MIC AG037 APH(3′)-III: E. coli strain AG037, APH(3′)-III; for MIC AG103 armA: E. coli strain AG103, armA; for MIC pH421 APH(3)-I: E. coli strain pH421, APH(3)-I; for MIC pH422 APH(3′)-II: E. coli strain pH422, APH(3′)-II; for MIC pH423 APH(3′)-VI: E. coli strain pH423, APH(3′)-VI; for MIC pH432 ANT(4′): E. coli strain pH432, ANT(4′); for MIC: Escherichia coli, read-out: MIC AG003 E. coli AAC(3)-II
[2] = system: wild type bacterial ribosomes; assay: in-vitro translation assay, bacterial ribosomes; type: biochemical; conditions: Mycobacterium smegmatis ribosomes; read-out: IC50 Bacterial
Source text: (§1) The antiribosomal activity of these compounds was investigated with cell-free translation assays using both wild type bacterial ribosomes and hybrid ribosomes carrying eukaryotic decoding A sites enabling the prediction of selectivity.

[3] = system: A1555G mutant mitochondrial ribosome (human chimeric); assay: in-vitro translation assay, human chimeric ribosomes, A1555G mutant mitochondrial decoding site; type: biochemical; conditions: human mitochondrial decoding site with A1555G point mutation; read-out: IC50 Mitoch. A1555G
Source text: as §1

[4] = system: cytosolic ribosome (human chimeric); type: biochemical; conditions: ribosomes with a human cytosolic decoding site; read-out: IC50 Cytosolic
Source text: as §1

[5] = system: mitochondrial ribosome (human chimeric); type: biochemical; conditions: ribosomes with a human mitochondrial decoding site; read-out: IC50 Mitoch.
Source text: as §1

[6] = system: rabbit reticulocyte ribosomes; assay: in-vitro translation assay, rabbit reticulocyte ribosomes; type: biochemical; conditions: mammalian cytosolic ribosomes (rabbit)
[7] = clinical isolate AG039, AAC(6′)-I ANT(4′)-I
[8] = clinical isolate AG042, AAC(6′)-I ANT(4′)-I APH(2′)
[9] = clinical isolate AG031, APH(3′)-II
[10] = clinical isolate AG032, APH(3′)-II
[11] = clinical isolate AG038, read-out: MIC AG038 MRSA
[12] = clinical isolate AG039, AAC(6′)-I ANT(4′)-I, read-out: MIC AG039 MRSA AAC(6′)-I ANT(4′)-I
[13] = clinical isolate AG042, AAC(6′)-I ANT(4′)-I APH(2′), read-out: MIC AG042 MRSA AAC(6′)-I ANT(4′)-I APH(2′)
[14] = clinical isolate AG001, WT, read-out: MIC AG001 E. coli WT
[15] = clinical isolate AG055, WT, read-out: MIC AG055 E. coli WT
[16] = clinical isolate AG031, APH(3′)-II, read-out: MIC AG031 P. aer. APH(3′)-II
[17] = clinical isolate AG032, APH(3′)-II, read-out: MIC AG032 P. aer. APH(3′)-II

| Structure (SMILES) | MIC AG038 MRSA (MRSA; clinical isolate AG038) [µg/mL] | MIC AG039 MRSA AAC(6′)-I ANT(4′)-I (MRSA; [7]) [µg/mL] | MIC AG042 MRSA AAC(6′)-I ANT(4′)-I APH(2′) (MRSA; [8]) [µg/mL] | MIC AG044 MRSA (MRSA; clinical isolate AG044) [µg/mL] | MIC AG001 E. coli WT (E coli wild type; clinical isolate AG001, WT) [µg/mL] | MIC AG055 E. coli WT (E coli wild type; clinical isolate AG055, WT) [µg/mL] | MIC AG031 P. aer. APH(3′)-II (P aeruginosa; [9]) [µg/mL] | MIC AG032 P. aer. APH(3′)-II (P aeruginosa; [10]) [µg/mL] | MIC AG003 E. coli AAC(3)-II [1] [µg/mL] | pIC50 [2] | pIC50 [3] | pIC50 [4] | pIC50 [5] | pIC50 [6] | MIC pH430 WT (E coli wild type) | MIC AG036 ANT(4′,4′′) [1] [µg/mL] | MIC AG037 APH(3′)-III [1] [µg/mL] | MIC AG103 armA [1] [µg/mL] | MIC pH421 APH(3)-I [1] [μg/ml] | MIC pH422 APH(3′)-II [1] [μg/ml] | further results |
| --- | --- | --- | --- | --- | --- | --- | --- | --- | --- | --- | --- | --- | --- | --- | --- | --- | --- | --- | --- | --- | --- |
| NCC1OC(OC2C(CNC=O)OC(OC3C(O)C(N)CC(N)C3OC3OC(CO)C(O)C(O)C3N)C2O)C(N)C(O)C1O (centres unmarked) [DC137] | 4 (≈ 6.22 µM) | >128 | >128 | 2 to 4 | 4 (≈ 6.22 µM) | 2 to 4 | ≥128 | 128 (≈ 199 µM) | 2 to 4 | 7.40 | 4.52 | 4.05 | 3.84 | 4.54 | – | – | – | – | – | – | – |
| NC[C@H]1O[C@H](O[C@H]2[C@H](O[C@@H]3O[C@H](CO)[C@@H](O)[C@H]3O)[C@@H](O)[C@H](N)C[C@@H]2N)[C@H](N)C[C@@H]1O [DC047] | 8 (≈ 18.2 µM) | >128 | >128 | 8 to 16 | 8 to 16 | 8 to 16 | 4 (≈ 9.12 µM) | 4 (≈ 9.12 µM) | 8 (≈ 18.2 µM) | 7.00 | 3.92 | 3.53 | 3.49 | 3.80 | – | – | – | – | – | – | – |
| CC(C)(O)[C@H]1O[C@H](O[C@H]2[C@H](O[C@@H]3O[C@H](CO)[C@@H](O[C@H]4O[C@@H](CN)[C@@H](O)[C@H](O)[C@H]4N)[C@H]3O)[C@@H](O)[C@H](N)C[C@@H]2N)[C@H](N)[C@@H](O)[C@@H]1O [DC159] | 8 to 16 | >128 | >128 | 4 to 8 | 8 (≈ 12.4 µM) | 8 (≈ 12.4 µM) | >128 | >128 | 8 (≈ 12.4 µM) | 7.40 | 4.06 | 4.52 | 3.68 | 4.82 | 1-2 μg/ml | 16 to 32 | >64 | 4 to 8 | >64 | >64 | MIC pH423 APH(3′)-VI [1]: 8 μg/ml; MIC pH432 ANT(4′) [1]: 2 μg/ml |
| CNC1C(OC2C(N)CC(N)C(O)C2OC2OC(CO)C(O)C2O)OC(CN)C(O)C1O (centres unmarked) [DC-100] | – | – | – | – | – | – | – | – | – | 6.28 | 3.65 | 3.43 | 3.34 | 4.05 | – | – | – | – | – | – | MIC (MRSA; [11]): 64 to 128 µg/mL (≈ 137 to 273 µM); MIC (MRSA; [12]): > 128 µg/mL; MIC (MRSA; [13]): > 128 µg/mL; MIC (MRSA; clinical isolate AG044, read-out: MIC AG044 MRSA): 128 µg/mL (≈ 273 µM); MIC (E coli wild type; [14]): 64 to 128 µg/mL (≈ 137 to 273 µM); MIC (E coli wild type; [15]): 64 to 128 µg/mL (≈ 137 to 273 µM); MIC (P aeruginosa; [16]): > 128 µg/mL; MIC (P aeruginosa; [17]): > 128 µg/mL; MIC [1]: 64 µg/mL (≈ 137 µM) |
| CC(N)C1OC(OC2C(N)CC(N)C(O)C2OC2OC(CO)C(OC3OC(CN)C(O)C(O)C3N)C2O)C(N)C(O)C1O (centres unmarked) [DC166] | 2 (≈ 3.18 µM) | >128 | >128 | 1 (≈ 1.59 µM) | 2 (≈ 3.18 µM) | 2 (≈ 3.18 µM) | 128 to 256 | 128 (≈ 204 µM) | 2 (≈ 3.18 µM) | 8.00 | 6.00 | 4.59 | 5.05 | 4.32 | 0.5 μg/ml | 16 (≈ 25.5 µM) | >64 | 1 (≈ 1.59 µM) | >32 | >32 | MIC pH414 AAC(6′)-I ([1]; E. coli strain pH414, AAC(6′)-I): 0.5 μg/ml; MIC pH415 AAC(6′)-II ([1]; E. coli strain pH415, AAC(6′)-II): 1-2 μg/ml; MIC pH423 APH(3′)-VI [1]: >32 μg/ml; MIC pH432 ANT(4′) [1]: 0.5 μg/ml |
| NCC1OC(OC2C(CO)OC(OC3C(O)C(N)CC(N)C3OC3OC(CN)C(O)C(O)C3NC=O)C2O)C(N)C(O)C1O (centres unmarked) [DC-182] | – | – | – | – | – | – | – | – | – | 6.92 | 4.89 | 3.90 | 4.27 | 3.96 | – | – | – | – | – | – | MIC (MRSA; [11]): 2 to 4 µg/mL (≈ 3.11 to 6.22 µM); MIC (MRSA; [12]): > 32 µg/mL; MIC (MRSA; [13]): > 32 µg/mL; MIC (E coli wild type; [14]): 4 to 8 µg/mL (≈ 6.22 to 12.4 µM); MIC (E coli wild type; [15]): 2 µg/mL (≈ 3.11 µM); MIC (P aeruginosa; [16]): > 32 µg/mL; MIC (P aeruginosa; [17]): > 32 µg/mL; MIC [1]: 4 to 8 µg/mL (≈ 6.22 to 12.4 µM) |
